Consider eleven compounds from PubChem BioAssay (NCI).

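Values below derive from 48-hour exposures of cells grown in 96-well plates, with endpoints linearly interpolated between the two concentrations bracketing the appropriate inhibition level. TGI denotes the concentration required for complete inhibition of growth.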

Test systems include ACHN renal; BT-549 breast; HL-60(TB) leukemia; LOX IMVI melanoma; MALME-3M melanoma; MDA-MB-435; NCI-H23 lung; NCI-H460 lung; NCI-H522 lung; SF-539 CNS; SK-MEL-2 melanoma; SK-OV-3 ovarian; SNB-75 CNS; MDA-MB-231 breast.
What all share (assay): NCI tumour cell line growth inhibition, 48 h

For the compound `COc1ccc(CCNCCCC2c3ccccc3-c3ccccc32)cc1OC`, the TGI with ACHN renal came to 29.6 µM; with BT-549 breast it was 35.6 µM; in the test with HL-60(TB) leukemia, 47.7 µM; in the test with LOX IMVI melanoma, 28.7 µM; in the test with MALME-3M melanoma, 27 µM; in the test on MDA-MB-435, 28.3 µM. Also, the TGI was 28.9 µM in the test on NCI-H23 lung; 18.3 µM in the test with NCI-H460 lung; 30.1 µM with NCI-H522 lung; 30.8 µM with SF-539 CNS; 17.9 µM with SK-MEL-2 melanoma; 32.9 µM in the test with SK-OV-3 ovarian. Further, the TGI in the test with SNB-75 CNS was determined as 27.2 µM.

In the case of `COC(=O)c1ccc(NCc2cc(O)ccc2O)cc1`, the TGI with ACHN renal is 24 µM; with BT-549 breast it was 2.63 µM; with HL-60(TB) leukemia, 8.58 µM; with LOX IMVI melanoma it was 26.1 µM; with MALME-3M melanoma, 15.7 µM; in the test with MDA-MB-435, 17.3 µM. The TGI with NCI-H23 lung was found to be 32.9 µM; with NCI-H460 lung, 52.2 µM; with NCI-H522 lung it was 2.06 µM; in the test with SF-539 CNS, 13.5 µM; with SK-MEL-2 melanoma, 36.1 µM; with SK-OV-3 ovarian it was 48.8 µM. In the test on SNB-75 CNS, this compound registered a TGI of 38.9 µM.

With `CN(C)Cc1cc(N=Nc2ccc(Cl)cc2)ccc1OC(=O)c1ccccc1`, the TGI stood at 28.7 µM with ACHN renal; 47.8 µM in the test on BT-549 breast; 43.7 µM with HL-60(TB) leukemia; 27.6 µM in the test with LOX IMVI melanoma; 31 µM with MALME-3M melanoma; 28.6 µM in the test with MDA-MB-231 breast. The TGI was 29.3 µM in the test on MDA-MB-435; 34.4 µM with NCI-H23 lung; 32.4 µM with NCI-H460 lung; 26.5 µM with NCI-H522 lung; 34.5 µM in the test with SF-539 CNS; 38.7 µM in the test with SNB-75 CNS.

On to `CCOP(=O)(OCC)/C(C#N)=C/c1ccnc2ccccc12`, for which the TGI with ACHN renal was above 100 µM; with BT-549 breast, 50.9 µM; with LOX IMVI melanoma, above 100 µM; in the test with MALME-3M melanoma, above 100 µM; with MDA-MB-231 breast, 58.2 µM; in the test with MDA-MB-435 it was 31.3 µM. Moreover, the TGI is 59.7 µM with NCI-H23 lung; above 100 µM with NCI-H460 lung; 57.8 µM in the test with NCI-H522 lung; 49.2 µM in the test on SF-539 CNS; 50.5 µM in the test on SK-MEL-2 melanoma; 82.7 µM in the test on SK-OV-3 ovarian. Moreover, the TGI in the test with SNB-75 CNS stood at 75.8 µM.

For the compound `CCOC(=O)c1c(N2CCCC2)[nH]c(=O)c(C(c2cccs2)c2c(O)c(C(=O)OCC)c(N3CCCC3)[nH]c2=O)c1O`, the TGI in the test with ACHN renal, in the test with BT-549 breast, with LOX IMVI melanoma, in the test with MALME-3M melanoma, in the test on MDA-MB-231 breast and with MDA-MB-435 was above 100 µM in each case. The TGI in the test on NCI-H23 lung, with NCI-H460 lung, in the test on NCI-H522 lung, in the test with SF-539 CNS, with SK-MEL-2 melanoma and with SK-OV-3 ovarian was above 100 µM in each case. In the test with SNB-75 CNS, this compound registered a TGI above 100 µM.

On to `COc1ccc(CCNC(=O)[C@H]2CCCC[C@@H]2CCO)cc1OC`, for which the TGI in the test on ACHN renal, in the test on BT-549 breast, in the test on HL-60(TB) leukemia, in the test on MDA-MB-231 breast, in the test with MDA-MB-435 and in the test on NCI-H23 lung was above 100 µM in each case. Besides, the TGI with NCI-H460 lung, in the test with NCI-H522 lung, in the test on SF-539 CNS, with SK-MEL-2 melanoma, in the test with SK-OV-3 ovarian and with SNB-75 CNS was above 100 µM in each case.

`CCCCNC(=S)/N=C/c1c(O)c2ccccc2[nH]c1=O`: the TGI in the test with ACHN renal, with BT-549 breast, with HL-60(TB) leukemia, in the test with MALME-3M melanoma, in the test with MDA-MB-231 breast and in the test on MDA-MB-435 was above 10 µM throughout. Moreover, the TGI in the test on NCI-H23 lung, in the test with NCI-H460 lung and in the test with SF-539 CNS was above 10 µM in each case.

As for `COCCOC(=O)C(C)=[N+]=[N-]`, the TGI in the test with ACHN renal, in the test with BT-549 breast, in the test with LOX IMVI melanoma, in the test with MALME-3M melanoma, in the test on MDA-MB-231 breast and with MDA-MB-435 was above 100 µM in each case. Moreover, the TGI with NCI-H23 lung, in the test with NCI-H460 lung, with NCI-H522 lung and in the test on SNB-75 CNS was above 100 µM in each case.

For `CCc1n[nH]c(=O)n1CCO`, the TGI in the test on ACHN renal, with BT-549 breast, in the test with HL-60(TB) leukemia, in the test with LOX IMVI melanoma, in the test with MDA-MB-231 breast and in the test with MDA-MB-435 was above 100 µM throughout. For the same compound, the TGI with NCI-H23 lung, in the test on NCI-H460 lung, in the test with SF-539 CNS, in the test on SK-MEL-2 melanoma and in the test with SK-OV-3 ovarian was above 100 µM in each case.

Consider `CC#CC(O)(C(=O)OC1CC2CCC(C1)N2C)C1CCCC1` (stereo not given), for which the TGI in the test on ACHN renal, in the test with BT-549 breast, in the test on HL-60(TB) leukemia, in the test with LOX IMVI melanoma, in the test on MDA-MB-231 breast and with MDA-MB-435 was above 100 µM each time. The TGI in the test with NCI-H23 lung, in the test with NCI-H460 lung, in the test on SF-539 CNS, in the test with SK-MEL-2 melanoma, in the test on SK-OV-3 ovarian and in the test on SNB-75 CNS was above 100 µM in each case.

Take `COc1ccccc1CNC(=O)[C@H](Cc1ccc(O)cn1)NC(C)=O`: the TGI with ACHN renal, with BT-549 breast, with HL-60(TB) leukemia, with LOX IMVI melanoma, with MALME-3M melanoma and in the test with MDA-MB-435 was above 100 µM in each case. Besides, the TGI in the test on NCI-H23 lung, in the test with NCI-H460 lung, in the test with NCI-H522 lung, in the test with SF-539 CNS, in the test on SK-MEL-2 melanoma and with SK-OV-3 ovarian was above 100 µM in each case.
